IC50 and EC1000 data for 16 compounds are collected here from ChEMBL document CHEMBL1148247, “Synthesis and histone deacetylase inhibitory activity of cyclic tetrapeptides containing a retrohydroxamate as zinc ligand” (Bioorg Med Chem Lett, 2004).

As usually defined, the IC50 is the point on the concentration scale where inhibition reaches its midpoint. The low end stands for greater potency in that assay, the high end for weaker potency in that assay. As a reminder, the pIC50 is the IC50 on a negative log10 scale, so that one unit is a factor of ten. Low values mean a large IC50, high ones a small IC50.

pIC50: −log10 of the molar value. Where a SMILES comes first, the peptide text is derived from it. [ ]: non-standard residue; d: D form. The star is where a group is joined. Asu = N[C@@H](CCCCCC(=O)O)C(=O)O; aIle = CC[C@@H](C)[C@H](N)C(=O)O; NHOH = ON*

One test addresses Histone deacetylase. The experiment in a line: Inhibitory activity against histone deacetylases (HDAC) prepared from mouse melanoma B16/BL6 cells. It counts as cell-based.
Test [1] concerns the target T1, Protein deacetylase HDAC6 (Mus musculus, UniProt Q9Z2V5).
T1 sequence (Q9Z2V5 whole entry): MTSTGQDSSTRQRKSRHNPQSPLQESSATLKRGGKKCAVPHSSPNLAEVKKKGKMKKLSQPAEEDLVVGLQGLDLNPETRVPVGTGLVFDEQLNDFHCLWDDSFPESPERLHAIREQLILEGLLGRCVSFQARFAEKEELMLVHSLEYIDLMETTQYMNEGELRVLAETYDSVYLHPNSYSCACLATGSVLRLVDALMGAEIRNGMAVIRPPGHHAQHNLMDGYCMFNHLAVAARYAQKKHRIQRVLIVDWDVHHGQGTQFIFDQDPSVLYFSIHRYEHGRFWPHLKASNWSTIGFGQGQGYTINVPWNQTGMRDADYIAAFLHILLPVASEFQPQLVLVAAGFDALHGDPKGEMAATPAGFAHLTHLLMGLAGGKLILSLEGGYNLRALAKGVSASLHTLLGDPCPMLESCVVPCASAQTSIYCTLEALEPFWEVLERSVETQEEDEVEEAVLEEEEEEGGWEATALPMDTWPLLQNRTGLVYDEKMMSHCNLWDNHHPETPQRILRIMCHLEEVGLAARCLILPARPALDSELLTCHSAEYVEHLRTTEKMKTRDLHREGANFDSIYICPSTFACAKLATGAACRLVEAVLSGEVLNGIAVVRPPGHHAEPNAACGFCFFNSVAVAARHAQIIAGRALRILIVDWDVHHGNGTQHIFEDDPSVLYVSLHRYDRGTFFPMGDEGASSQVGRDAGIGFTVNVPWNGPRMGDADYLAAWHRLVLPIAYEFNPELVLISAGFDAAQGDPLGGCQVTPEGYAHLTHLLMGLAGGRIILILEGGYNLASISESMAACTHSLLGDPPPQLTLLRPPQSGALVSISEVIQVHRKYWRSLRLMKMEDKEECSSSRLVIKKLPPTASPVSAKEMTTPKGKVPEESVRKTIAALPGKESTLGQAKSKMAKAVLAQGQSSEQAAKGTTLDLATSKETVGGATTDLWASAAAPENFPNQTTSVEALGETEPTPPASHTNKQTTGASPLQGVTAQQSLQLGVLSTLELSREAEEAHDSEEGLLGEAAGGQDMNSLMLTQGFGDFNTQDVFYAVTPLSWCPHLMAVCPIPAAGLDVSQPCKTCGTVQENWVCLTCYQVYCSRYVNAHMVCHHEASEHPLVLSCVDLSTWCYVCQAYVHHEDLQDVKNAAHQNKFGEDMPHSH
The experiment in a line: Inhibitory activity against histone deacetylase 6 prepared from mouse melanoma B16/BL6 cells. It counts as cell-based.

A further test addresses T2, Histone deacetylase 8 (Mus musculus, UniProt Q8VH37).
T2 sequence (Q8VH37 whole entry): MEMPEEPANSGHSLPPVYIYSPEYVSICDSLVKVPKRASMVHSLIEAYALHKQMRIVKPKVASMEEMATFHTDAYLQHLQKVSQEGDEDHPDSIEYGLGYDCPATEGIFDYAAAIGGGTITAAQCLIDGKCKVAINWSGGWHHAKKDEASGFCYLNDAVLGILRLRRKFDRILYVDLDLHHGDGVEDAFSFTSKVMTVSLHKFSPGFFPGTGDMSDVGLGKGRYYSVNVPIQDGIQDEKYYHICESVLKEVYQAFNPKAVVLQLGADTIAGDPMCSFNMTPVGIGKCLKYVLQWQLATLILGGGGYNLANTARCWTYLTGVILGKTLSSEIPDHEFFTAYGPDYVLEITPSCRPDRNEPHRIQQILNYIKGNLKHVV
As to the kind of experiment: Inhibitory activity against histone deacetylase 8 prepared from mouse melanoma B16/BL6 cells. It counts as cell-based.

For test [2], the target named is T3, Histone deacetylase 1 (Mus musculus, UniProt O09106).
T3 sequence (O09106 whole entry): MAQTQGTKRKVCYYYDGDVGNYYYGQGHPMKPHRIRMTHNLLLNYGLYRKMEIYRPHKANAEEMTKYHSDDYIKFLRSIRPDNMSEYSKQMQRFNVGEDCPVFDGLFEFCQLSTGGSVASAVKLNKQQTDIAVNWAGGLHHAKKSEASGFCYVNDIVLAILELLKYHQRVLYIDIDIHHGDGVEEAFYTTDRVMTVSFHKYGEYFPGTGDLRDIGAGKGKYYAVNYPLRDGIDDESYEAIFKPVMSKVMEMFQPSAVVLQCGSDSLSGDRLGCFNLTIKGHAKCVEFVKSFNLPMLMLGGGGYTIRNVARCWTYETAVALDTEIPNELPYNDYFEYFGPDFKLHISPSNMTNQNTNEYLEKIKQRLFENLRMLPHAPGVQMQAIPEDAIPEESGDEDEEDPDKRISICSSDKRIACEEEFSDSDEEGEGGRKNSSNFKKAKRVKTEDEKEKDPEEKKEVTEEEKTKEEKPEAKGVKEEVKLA
Description: (§1) Inhibitory activity against histone deacetylases (HDAC1) prepared from mouse melanoma B16/BL6 cells
The next test is filed under the species Mus musculus. The experiment in a line: Effective concentration in histone deacetylases (HDAC) using p21 promoter assay.
Test [3] addresses T3, Histone deacetylase 1. As to conditions: b16/bl6.
Description: as §1

As for `CC[C@@H](C)[C@@H]1NC(=O)[C@@H](Cc2ccc(OC)cc2)NC(=O)[C@H](CCCCCN(O)C(C)=O)NC(=O)[C@H]2CCCCN2C1=O`, the IC50 on Histone deacetylase came out at 43.8 µM.
Consider `CC[C@@H](C)[C@@H]1NC(=O)[C@@H](Cc2ccc(OC)cc2)NC(=O)[C@H](CCCCCN(O)C=O)NC(=O)[C@H]2CCCCN2C1=O`, for which the results for the pIC50 (in test [1]; on Histone deacetylase 8; against Histone deacetylase 1 [2]) were 6.11, 7.34 and 7.59, respectively. Also, the IC50 against Histone deacetylase was 0.084 µM.
Consider `CC[C@@H](C)[C@@H]1NC(=O)[C@@H](Cc2ccc(OC)cc2)NC(=O)[C@H](CCCCN(O)C=O)NC(=O)[C@@H]2CCCCN2C1=O`, for which, at Histone deacetylase, the IC50 amounted to 1.392 µM.
On the same count and under the same terms, next, `CC[C@@H](C)[C@@H]1NC(=O)[C@@H](Cc2ccc(OC)cc2)NC(=O)[C@H](CCCCN(O)C(C)=O)NC(=O)[C@H]2CCCCN2C1=O`: 88.4 µM.
In the test listed under Mus musculus, `CC(/C=C/C(=O)NO)=C\[C@@H](C)C(=O)c1ccc(N(C)C)cc1` [TRICHOSTATIN] showed an EC1000 of 0.19 µM.
On Histone deacetylase, `CC[C@@H](C)[C@@H]1NC(=O)[C@@H](Cc2ccc(OC)cc2)NC(=O)[C@H](CCCCN(O)C=O)NC(=O)[C@H]2CCCCN2C1=O` displayed an IC50 of 0.957 µM.
The same measure, in the same setting: next, `CC[C@@H](C)[C@@H]1NC(=O)[C@@H](Cc2ccc(OC)cc2)NC(=O)[C@H](CCCCCCC(=O)NO)NC(=O)[C@@H]2CCCCN2C1=O`: 0.00396 µM.
Same read-out and setting: next, `CC[C@@H](C)[C@@H]1NC(=O)[C@@H](Cc2ccc(OC)cc2)NC(=O)[C@H](CCCCCCN(O)C=O)NC(=O)[C@@H]2CCCCN2C1=O`: 1.35 µM.
Consider `CC[C@@H](C)[C@@H]1NC(=O)[C@@H](Cc2ccc(OC)cc2)NC(=O)[C@H](CCCCCN(O)C=O)NC(=O)[C@@H]2CCCN2C1=O`, for which the pIC50 in test [1] (b16/bl6) was 7.54; on Histone deacetylase 8 (b16/bl6) it was 7.47; at Histone deacetylase 1 [3] it was 7.48.
As for `CC[C@@H](C)[C@@H]1NC(=O)[C@@H](Cc2ccc(OC)cc2)NC(=O)[C@H](CCCCCN(O)C=O)NC(=O)[C@@H]2CCCCN2C1=O`, at Histone deacetylase, the half-maximal inhibitory concentration (IC50) was 0.141 µM.
With `CC[C@@H](C)[C@@H]1NC(=O)[C@@H](Cc2ccc(OC)cc2)NC(=O)[C@H](CCCCCC(=O)NO)NC(=O)[C@H]2CCCN2C1=O` (cyclo([Asu](NHOH)[dY](Me)[aIle][dP])), the EC1000 in the test listed under Mus musculus turned out to be 0.022 µM.
On Histone deacetylase 1 [2], `CC[C@H](C)[C@@H]1NC(=O)[C@@H](Cc2ccc(OC)cc2)NC(=O)[C@H](CCCCCC(=O)NO)NC(=O)[C@H]2CCCN2C1=O` (cyclo([Asu](NHOH)[dY](Me)I[dP])) gave a pIC50 of 9.40.
The compound `CC[C@@H](C)[C@@H]1NC(=O)[C@@H](Cc2ccc(OC)cc2)NC(=O)[C@H](CCCCCN(O)C(C)=O)NC(=O)[C@@H]2CCCCN2C1=O` yielded an IC50 on Histone deacetylase of 58 µM.
The same measure, in the same setting: next, `CC[C@@H](C)[C@@H]1NC(=O)[C@@H](Cc2ccc(OC)cc2)NC(=O)[C@H](CCCCCCN(O)C=O)NC(=O)[C@H]2CCCCN2C1=O`: 0.893 µM; `CC[C@@H](C)[C@@H]1NC(=O)[C@@H](Cc2ccc(OC)cc2)NC(=O)[C@H](CCCCN(O)C(C)=O)NC(=O)[C@@H]2CCCCN2C1=O`: 88.5 µM.
With `CC[C@@H](C)[C@@H]1NC(=O)[C@@H](Cc2ccc(OC)cc2)NC(=O)[C@H](CCCCCN(O)C=O)NC(=O)[C@H]2CCCN2C1=O`, the pIC50 was 6.75 in test [1], 7.23 against Histone deacetylase 8 and 7.17 against Histone deacetylase 1 [2]. The compound further gave an EC1000 in the test filed under Mus musculus of 0.61 µM.
